Assay results as given in patent US20240252488A1 (KOREA RESEARCH INSTITUTE OF CHEMICAL TECHNOLOGY, priority 2020, published 2024).

Key:
FADD−/− Jurkat cells = assay: Necroptosis inhibition assay, TNF-α-induced necroptosis (CellTiter-Glo 2.0); assay type: cell-based, human; details: TNF-α 15 ng/mL; for Necroptosis inhibition assay (Rescue %) 1 μM: compound 1 μM; for Necroptosis inhibition assay (Rescue %) 10 μM: compound 10 μM
Method in brief: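 Cells at 5.0×10^5 cells/mL were pretreated with compound (final 0.1, 1 and 10 μM) for 30 minutes at room temperature, then given TNF-α at 15 ng/mL final. After 20 to 24 hours at 37° C, 5% CO2, viability was read as ATP luminescence to calculate cytotoxicity and necroptosis inhibition rate.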

MLKL [1] = molecular target: T1, MLKL (Homo sapiens, UniProt Q8NB16); assay: MLKL degradation assay in HepG2 cell line (western blot); assay type: cell-based; design: endogenous in cells; host or cells: HepG2 or HaCaT; details: cell line not given; for Degradation assay (Degradation %) 1 μM: compound 1 μM; for Degradation assay (Degradation %) 10 μM: compound 10 μM
T1 sequence (Q8NB16 1-471): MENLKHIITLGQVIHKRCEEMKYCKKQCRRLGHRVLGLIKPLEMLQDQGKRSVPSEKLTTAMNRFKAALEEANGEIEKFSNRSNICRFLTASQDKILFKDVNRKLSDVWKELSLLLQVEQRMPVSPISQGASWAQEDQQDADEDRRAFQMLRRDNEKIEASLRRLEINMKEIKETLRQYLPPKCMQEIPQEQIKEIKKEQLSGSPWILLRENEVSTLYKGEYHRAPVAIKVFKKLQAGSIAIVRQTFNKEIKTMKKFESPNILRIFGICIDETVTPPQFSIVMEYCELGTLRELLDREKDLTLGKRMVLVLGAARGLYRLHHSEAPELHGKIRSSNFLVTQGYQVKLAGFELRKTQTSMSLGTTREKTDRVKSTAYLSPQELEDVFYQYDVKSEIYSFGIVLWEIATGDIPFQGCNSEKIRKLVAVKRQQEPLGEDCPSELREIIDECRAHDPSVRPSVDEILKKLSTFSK
Method in brief: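 HepG2 cells were exposed to compound at a final 1 or 10 μM for 20-24 hours at 37 °C, 5% CO2. RIPA lysates were normalized by BCA assay, 10-15 μg protein resolved by SDS-PAGE, and MLKL levels detected by western blot with chemiluminescence.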

MLKL [2] = molecular target: T1, MLKL; assay: Measurement of binding affinity with MLKL receptor (competitive binding assay, Kd); design: made in house; host or cells: HEK 293 cell line (T7 phage in E. coli BL21-derived host is also described)
Method in brief: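 Kd comes from a bead-based competition format: compound-dependent loss of DNA-tagged, HEK 293-expressed MLKL capture, measured as eluate kinase by qPCR. Final DMSO is 0.9%.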

Degradation assay (Degradation %) 1 μM (MLKL [1]) [%] | Degradation assay (Degradation %) 10 μM (MLKL [1]) [%] | Kd (MLKL [2]) [nM] | Compound | Necroptosis inhibition assay (Rescue %) 1 μM (FADD−/− Jurkat cells) [%] | Necroptosis inhibition assay (Rescue %) 10 μM (FADD−/− Jurkat cells) [%]
51.13 | 47.86 | 3.9 | Nc1ncc(-c2cnn(C3CCN(CCOCCNc4ccc5c(c4)C(=O)N(C4CCC(=O)NC4=O)C5=O)CC3)c2)nc1C(=O)O[C@@H](C(=O)Nc1ccc(F)cc1)c1ccccc1 (stereo partly drawn) [TDH-131, (R)-2-((4-fluorophenyl)amino)-2-oxo-1-phenylethyl 3-amino-6-(1-(1-(2-(2-((2-(2,6-dioxopiperidin-3-yl)-1,3-dioxoisoindolin-5-yl)amino)ethoxy)ethyl)piperidin-4-yl)-1H-pyrazol-4-yl)pyrazine-2-carboxylate] | 24.56 | 0.96
40.32 | 50.03 | 1.2 | Nc1ncc(-c2cnn(C3CCN(CCCCCCNC(=O)CNc4ccc5c(c4)C(=O)N(C4CCC(=O)NC4=O)C5=O)CC3)c2)nc1C(=O)O[C@@H](C(=O)Nc1ccc(F)cc1)c1ccccc1 (stereo partly drawn) [TDH-132, (R)-2-((4-fluorophenyl)amino)-2-oxo-1-phenylethyl 3-amino-6-(1-(1-(6-(2-((2-(2,6-dioxopiperidin-3-yl)-1,3-dioxoisoindolin-5-yl)amino)acetamido)hexyl)piperidin-4-yl)-1H-pyrazol-4-yl)pyrazine-2-carboxylate] | 75.06 | 54.76
53.05 | 40.54 | 0.78 | Nc1ncc(-c2cnn(C3CCN(CCCCCCNC(=O)COc4cccc5c4C(=O)N(C4CCC(=O)NC4=O)C5=O)CC3)c2)nc1C(=O)O[C@@H](C(=O)Nc1ccc(F)cc1)c1ccccc1 (stereo partly drawn) [TDH-133, (R)-2-((4-fluorophenyl)amino)-2-oxo-1-phenylethyl 3-amino-6-(1-(1-(6-(2-((2-(2,6-dioxopiperidin-3-yl)-1,3-dioxoisoindolin-4-yl)oxy)acetamido)hexyl)piperidin-4-yl)-1H-pyrazol-4-yl)pyrazine-2-carboxylate] | 91.87 | 68.81
14.36 | 54.11 | 3 | Nc1ncc(-c2cnn(C3CCN(CCOCCNC(=O)COc4cccc5c4C(=O)N(C4CCC(=O)NC4=O)C5=O)CC3)c2)nc1C(=O)O[C@@H](C(=O)Nc1ccc(F)cc1)c1ccccc1 (stereo partly drawn) [TDH-134, (R)-2-((4-fluorophenyl)amino)-2-oxo-1-phenylethyl 3-amino-6-(1-(1-(2-(2-(2-((2-(2,6-dioxopiperidin-3-yl)-1,3-dioxoisoindolin-4-yl)oxy)acetamido)ethoxy)ethyl)piperidin-4-yl)-1H-pyrazol-4-yl)pyrazine-2-carboxylate] | 50.04 | 86.09
23.45 | 57.93 | 0.91 | Nc1ncc(-c2cnn(C3CCN(CCOCCOCCNC(=O)COc4cccc5c4C(=O)N(C4CCC(=O)NC4=O)C5=O)CC3)c2)nc1C(=O)O[C@@H](C(=O)Nc1ccc(F)cc1)c1ccccc1 (stereo partly drawn) [TDH-135, (R)-2-((4-fluorophenyl)amino)-2-oxo-1-phenylethyl 3-amino-6-(1-(1-(2-(2-(2-(2-((2-(2,6-dioxopiperidin-3-yl)-1,3-dioxoisoindolin-4-yl)oxy)acetamido)ethoxy)ethoxy)ethyl)piperidin-4-yl)-1H-pyrazol-4-yl)pyrazine-2-carboxylate] | 46.82 | 33.77
50.37 | 48.83 | 4.6 | Nc1ncc(-c2cnn(C3CCN(CC4CCN(C(=O)CNc5cccc6c5C(=O)N(C5CCC(=O)NC5=O)C6=O)CC4)CC3)c2)nc1C(=O)O[C@@H](C(=O)Nc1ccc(F)cc1)c1ccccc1 (stereo partly drawn) [TDH-136, (R)-2-((4-fluorophenyl)amino)-2-oxo-1-phenylethyl 3-amino-6-(1-(1-((1-((2-(2,6-dioxopiperidin-3-yl)-1,3-dioxoisoindolin-4-yl)glycyl)piperidin-4-yl)methyl)piperidin-4-yl)-1H-pyrazol-4-yl)pyrazine-2-carboxylate] | 48.59 | 40.66
54.49 | 54.94 | 2.8 | Nc1ncc(-c2cnn(C3CCN(CC4CCN(C(=O)CNc5ccc6c(c5)C(=O)N(C5CCC(=O)NC5=O)C6=O)CC4)CC3)c2)nc1C(=O)O[C@@H](C(=O)Nc1ccc(F)cc1)c1ccccc1 (stereo partly drawn) [TDH-137, (R)-2-((4-fluorophenyl)amino)-2-oxo-1-phenylethyl 3-amino-6-(1-(1-((1-((2-(2,6-dioxopiperidin-3-yl)-1,3-dioxoisoindolin-5-yl)glycyl)piperidin-4-yl)methyl)piperidin-4-yl)-1H-pyrazol-4-yl)pyrazine-2-carboxylate] | 76.05 | 63.68
40.46 | 25.69 | 4.2 | Nc1ncc(-c2cnn(C3CCN(CC4CCN(C(=O)C5CN(c6cccc7c6C(=O)N(C6CCC(=O)NC6=O)C7=O)C5)CC4)CC3)c2)nc1C(=O)O[C@@H](C(=O)Nc1ccc(F)cc1)c1ccccc1 (stereo partly drawn) [TDH-138, (R)-2-((4-fluorophenyl)amino)-2-oxo-1-phenylethyl 3-amino-6-(1-(1-((1-(1-(2-(2,6-dioxopiperidin-3-yl)-1,3-dioxoisoindolin-4-yl)azetidine-3-carbonyl)piperidin-4-yl)methyl)piperidin-4-yl)-1H-pyrazol-4-yl)pyrazine-2-carboxylate] | 70.53 | 60.57
– | 78.56 | 4.9 | Nc1ncc(-c2cnn(C3CCN(CCOCCOCCOCCNC(=O)C4CCN(c5cccc6c5C(=O)N(C5CCC(=O)NC5=O)C6=O)CC4)CC3)c2)nc1C(=O)O[C@@H](C(=O)Nc1ccc(F)cc1)c1ccccc1 (stereo partly drawn) [TDH-139, (R)-2-((4-fluorophenyl)amino)-2-oxo-1-phenylethyl 3-amino-6-(1-(1-(1-(1-(2-(2,6-dioxopiperidin-3-yl)-1,3-dioxoisoindolin-4-yl)piperidin-4-yl)-1-oxo-5,8,11-trioxa-2-azatridecan-13-yl)piperidin-4-yl)-1H-pyrazol-4-yl)pyrazine-2-carboxylate] | 18.11 | 61.89
41.81 | 83.53 | 9.2 | Nc1ncc(-c2cnn(C3CCN(CCOCCOCCOCCNC(=O)C4CCN(c5ccc6c(c5)C(=O)N(C5CCC(=O)NC5=O)C6=O)CC4)CC3)c2)nc1C(=O)O[C@@H](C(=O)Nc1ccc(F)cc1)c1ccccc1 (stereo partly drawn) [TDH-140, (R)-2-((4-fluorophenyl)amino)-2-oxo-1-phenylethyl 3-amino-6-(1-(1-(1-(1-(2-(2,6-dioxopiperidin-3-yl)-1,3-dioxoisoindolin-5-yl)piperidin-4-yl)-1-oxo-5,8,11-trioxa-2-azatridecan-13-yl)piperidin-4-yl)-1H-pyrazol-4-yl)pyrazine-2-carboxylate] | 21.32 | 81.41
17.47 | 58.93 | 8.1 | Nc1ncc(-c2cnn(C3CCN(CCOCCOCCOCCNC(=O)C4CN(c5cccc6c5C(=O)N(C5CCC(=O)NC5=O)C6=O)C4)CC3)c2)nc1C(=O)O[C@@H](C(=O)Nc1ccc(F)cc1)c1ccccc1 (stereo partly drawn) [TDH-141, (R)-2-((4-fluorophenyl)amino)-2-oxo-1-phenylethyl 3-amino-6-(1-(1-(1-(1-(2-(2,6-dioxopiperidin-3-yl)-1,3-dioxoisoindolin-4-yl)azetidin-3-yl)-1-oxo-5,8,11-trioxa-2-azatridecan-13-yl)piperidin-4-yl)-1H-pyrazol-4-yl)pyrazine-2-carboxylate] | 2.72 | 10.22
